The test system of data set [1] is motor neurons plated on astrocyte monolayers. Description: Motor neuron survival in astrocyte-motor neuron co-cultures. The conditions noted are these: for Motor neuron survival, percentage of control: co-cultures treated with NGF, mean±SD. Format: cell-based, rat. The method, then: Cell cultures and treatments. […] Astrocytes were plated at a density of 2×10^4 cells/cm^2 and maintained in DMEM supplemented with 10% fetal bovine serum, HEPES (3.6 g/l), penicillin ([…]) and streptomycin (100 μg/ml).
For co-culture experiments, motor neurons were plated on astrocyte monolayers at a density of 300 cells/cm^2 and maintained in L15 medium supplemented with 0.63 mg/ml bicarbonate, 5 μg/ml insulin, 0.1 mg/ml conalbumin, 0.1 mM putrescine, 30 nM sodium selenite, 20 nM progesterone, 20 mM glucose, 100 IU/ml penicillin, 100 μg/ml streptomycin, and 2% horse serum. Drugs and blocking antibodies were added 3 h after plating at the indicated concentrations.
Treatments with peroxynitrite and LPS. Peroxynitrite was generously provided by Dr. Rafael Radi (UDELAR, Uruguay) and its concentration determined spectrophotometrically at 302 nm (e=1700 M^−1 cm^−1). Confluent astrocyte monolayers were washed with Dulbecco's phosphate-buffered saline (PBS), supplemented with 0.8 mM MgCl2, 1 mM CaCl2, and 5 mM glucose, and then incubated in 1 ml of 50 mM Na2HPO4, 90 mM NaCl, 5 mM KCl, 0.8 mM MgCl2, 1 mM CaCl2, and 5 mM glucose, pH 7.4. Finally, three additions of 5 μL bolus of peroxynitrite were made to reach the final concentration of 0.5 mM. Five minutes after peroxynitrite exposure, the buffer was removed and replaced with L15 medium, supplemented as described above. In co-culture experiments, motor neurons were plated 1 h after peroxynitrite exposure. […] LPS (from E. coli 026-B6 Cat. No L2654 Sigma) was directly applied to astrocyte monolayers 24 h before and immediately after plating of motor neurons in coculture experiments.

In data set [2] the test system is pure motor neuron cultures. Put plainly: Motor neuron survival in pure motor neuron cultures maintained with GDNF. Format: cell-based, rat. Conditions: for Motor neuron survival with peroxynitrite-treated neurotrophin: without exogenous nitric oxide, GDNF 1 ng/ml, 48 h. How it is done:
Purified motor neuron cultures were plated at a density of 300 cells/cm^2 in dishes precoated with polyornithinelaminin and maintained in Neurobasal medium supplemented with 2% horse serum, […] L-glutamate, 25 μM β-mercaptoethanol, 0.5 mM L-glutamine, and 2% B-27 supplement (Gibco-Invitrogen). Blocking antibodies were added 3 h after plating at the indicated dilutions. The generation of a low steady state concentration (<50 nM) of nitric oxide was generated by the spontaneous deassociation of 10 μM DETA-NONate (Cayman).
To assess the pro-apoptotic activity of conditioned media, astrocyte monolayers were incubated for 24 h in Neurobasal medium supplemented as described above, and that medium immediately used to replace the medium of pure motor neuron cultures established 24 h before. Blocking antibodies and DETA-NONOate were added to the conditioned media and motor neuron survival determined after 48 h.
To assess the pro-apoptotic activity in spinal cord extracts, lumbar cords were dissected from 90 day-old G93A mice or non-transgenic littermates over ice under sterile conditions. To 100 mg of tissue were added 0.4 ml of PBS containing 3 mM EGTA, 1 mM EDTA, 0.5 μg/ml aprotinin, 0.5 μg/ml pepstatin and 0.1 mM PMSF at 0° C., and the tissue was then homogenized under sterile conditions. Homogenates were centrifuged at 40,000 g for 1 hr and the clear supernatants collected and kept at −80° C. until used. Aliquots were added to motor neuron cultures to reach a final protein concentration of 0.5 μg/ml. In all cases, blocking antibodies and drugs were added 3 h after motor neuron plating. The generation of a steady state concentration (<50 nM) of nitric oxide was obtained by the spontaneous disassociation of 10 μM NOC-18 (Dojindo, Gaithersburg).
Cell counts. Motor neuron survival was assessed by directly counting all cells displaying intact neurites longer than 4 cells in diameter following immunostaining against p 75NTR Counts were performed over an area of 2.76 cm^2 in the center of 35 mm dishes or in an area measuring 0.90 cm^2 along a diagonal in 24-well plates (Cassina et al., 2002). The mean density of motor neurons in control cocultures was 90±4 cells/cm^2.
Protocol for preparation of muscle extracts and western blotting. Quadriceps muscles were dissected from symptomatic G93A SOD1 or non transgenic littermate mice over ice under sterile conditions. To 1 g of tissues was added 4 ml of PBS containing 3 mM EGTA, 1 mM EDTA, 0.5 mg/ml aprotinin, 0.5 mg/ml pepstatin and 0.1 mM PMSF at 0° C., and the tissue was homogenized under sterile conditions. Homogenates were centrifuged at 40,000 g for 1 hr and the clear supernatants collected and kept at −80° C. until used. Quadriceps were homogenized in lysis buffer containing 2 mM EDTA, 1% SDS, 1 mM PMSF, 10 μg/ml aprotinin, 1 μg/ml leupeptin and 0.5 mM sodium vanadate. Protein quantification was performed using the BCA Protein Assay Reagent kit (Pierce Biotechnology). The samples were prepared in Laemmli buffer supplemented with […] and proteins were transferred to nitrocellulose membrane (Amersham). Membranes were blocked for 2 h in blocking buffer (5% BSA, 0.1% Tween 20 in Tris-buffered saline (TBS), pH 7.4) followed by an over-night incubation with the primary antibody diluted in blocking buffer. […]

Data set [3] concerns cultured spinal cord astrocytes. Put plainly: ELISA determination of NGF secreted by cultured spinal cord astrocytes. It is filed as cell-based, rat. The conditions noted are these: peroxynitrite 0.5 mM. How it is done:
Cell cultures and treatments. Primary astrocyte cultures were prepared from the spinal cords of rats aged 1-2 days according to the procedures of Saneto and De Vellis (1987), with minor modifications (Cassina et al., 2002). Astrocytes were plated at a density of 2×10^4 cells/cm^2 and maintained in DMEM supplemented with 10% fetal bovine serum, HEPES (3.6 g/l), penicillin ([…]) and streptomycin (100 μg/ml). The astrocyte monolayers were >98% pure as determined by GFAP immunoreactivity and were devoid of OX42-positive microglial cells.
Treatments with peroxynitrite and LPS. Peroxynitrite was generously provided by Dr. Rafael Radi (UDELAR, Uruguay) and its concentration determined spectrophotometrically at 302 nm (e=1700 M^−1 cm^−1). Confluent astrocyte monolayers were washed with Dulbecco's phosphate-buffered saline (PBS), supplemented with 0.8 mM MgCl2, 1 mM CaCl2, and 5 mM glucose, and then incubated in 1 ml of 50 mM Na2HPO4, 90 mM NaCl, 5 mM KCl, 0.8 mM MgCl2, 1 mM CaCl2, and 5 mM glucose, pH 7.4. Finally, three additions of 5 μL bolus of peroxynitrite were made to reach the final concentration of 0.5 mM. […]
Determination of NGF/proNGF. The NGF protein concentration in the culture medium from astrocytes or spinal cord extracts was quantified using the NGF Emax ImmunoAssay System kit (Promega) following the manufacturer's instructions.
(In general: ELISA stands for enzyme-linked immunosorbent assay.)

Data set [4] concerns G93A SOD-1 transgenic mice. Description: ALS-like disease progression and survival after systemic immunization against NGF. Format: in vivo. From the text:
Systemic immunization against NGF on ALS-like disease progression and survival in transgenic mouse overexpressing mutant G93A-SOD1 gene. Animals. The transgenic mouse line overexpressing mutant G93A-SOD1 gene [TgN(SOD1-G93A)1Gur, a high expression mouse line] and the mating pairs were purchased from Jackson laboratory (Bar Harbor, Me., USA). Mice were housed and bred as described previously (Gurney et al. 1994) in accordance with the Institutional Animal Care guidelines.
Immunization protocol. Adult, female, 40-50 day-old mice, initially weighing 18-24 g, were used for these experiments. Mice were group-housed 5 mice per cage and allowed free access to food and water. For testing, a total of 10 mice per group were autoimmunized against NGF. Each received […] of 25 μg of 2.5S mouse NGF (Harlam, USA) in 0.1 ml of a suspension of aluminum phosphate used as adjuvant. A second injection of 2.5S NGF (50 μg) in the same adjuvant was given 3 weeks later. Non-transgenic and vehicle-injected mice served as control animals for survival tests.
Analysis of ALS-like disease progression and survival in transgenic mouse. Mice were examined daily for paralysis, disease progression and survival analysis. The initial symptoms of hind leg paralysis or failure to remain suspended in an inverted grid were considered as the disease progression threshold. Mice were killed at terminal stage, i.e. severely paralysis and inability to seek food and water.

The results in this text go back to US20100183645A1, “ACTIVE OR PASSIVE IMMUNIZATION AGAINST PROAPOPTOTIC NEUROTROPHINS FOR THE TREATMENT AND/OR PREVENTION OF NEURODEGENERATIVE DISEASES” (INSTITUT PASTEUR, priority 2003, published 2010).

As for `CC(=N)NCCCC[C@H](N)C(=O)O` [LNIL, L-N6-(1-Iminoethyl)-lysine], the “Prevention of motor neuron apoptosis induced by NGF” value (“Prevention … by NGF” for short) in data set [1] (co-culture, 10 μM, 72 h) is on record as “significantly prevented”.

Take `N=C(N)NN` [aminoguanidine]: the “Prevention … by NGF” value in data set [1] (co-culture, 50 μM, 72 h) was “significantly prevented”. In addition, the “Motor neuron survival, percentage of control” value in data set [1] (inhibitor 50 μM, 72 h) is 87.0±8.0%.

`[N]=O` [Nitric oxide, reference compound]: the “Motor neuron survival, nitric oxide alone” value in data set [2] (<50 nM from 10 μM NOC-18, without NGF) was “did not affect motor neuron survival”.

`FC(F)(F)c1ccccc1-n1ccnc1` [TRIM, 1-(2-Trifluoromethylphenyl)imidazole]: in data set [1] (co-culture, 10 μM, 72 h), the “Prevention … by NGF” value is on record as “significantly prevented”.

Consider `CCCNC(=N)NCCC[C@H](N)C(=O)O` [NPLA, N5[Imino(propylamino)methyl]-Lornithine; Nu-Propyl-L-arginine], for which the “Prevention … by NGF” value in data set [1] (co-culture, 10 μM, 72 h) was “significantly prevented”. In data set [1] (inhibitor 10 μM, 72 h), the “Motor neuron survival, percentage of control” value was 110.4±9.2%.

`COC(=O)CC[C@H](NC(=O)[C@H](CC(=O)OC)NC(=O)OCc1ccccc1)C(=O)N[C@H](C(=O)N[C@@H](CC(=O)OC)C(=O)CF)C(C)C` [DEVD-fmk]: the “Prevention of NGF-induced motor neuron death by caspase inhibitors” value in data set [1] (co-culture, 10 μM added every 24 hours) is on record as “prevented”.

For the molecule `O=NOO` [peroxynitrite], in data set [3] (24 hours after treatment, LPS 1 μg/ml), the “Increase of NGF secretion to the culture medium” value is given as roughly 9 fold. Further, the “NGF concentration in conditioned culture media versus controls” value in data set [3] (after 3 days) stood at 5 fold.

As for `Oc1nc(O)c2nc(O)[nH]c2n1` [urate], the “Prevention of the effects of NGF on motor neurons” value in data set [1] (co-culture, 200 μM, 72 h) was “prevented”.

B1: BDNF treated with peroxynitrite: brain-derived neurotrophic factor treated with peroxynitrite by the identical protocol (protein, UniProt P23560 129-247, looked up)
Neurotrophic factor BDNF: HSDPARRGELSVCDSISEWVTAADKKTAVDMSGGTVTVLEKVPVSKGQLKQYFYETKCNPMGYTKEGCRGIDKRHWNSQCRTTQSYVRALTMDSKKRIGWRFIRIDTSCVCTLTIKRGR
modifications: Neurotrophic factor BDNF peroxynitrite-treated
notes: brain-derived neurotrophic factor treated with peroxynitrite by the identical protocol
Consider B1, for which, in data set [2], the “Motor neuron survival with peroxynitrite-treated neurotrophin” value is “induces motor neuron apoptosis”.

B2: peroxynitrite-treated NGF: NGF oxidised by peroxynitrite, forming high molecular weight NGF aggregates (protein)
chain: SSTHPVFHMGEFSVCDSVSVWVGDKTTATDIKGKEVTVLAEVNINNSVFRQYFFETKCRASNPVESGCRGIDSKHWNSYCTTTHTFVKALTTDEKQAAWRFIRIDTACVCVLSRKATRRG
B2: the “Motor neuron survival with peroxynitrite-treated neurotrophin” value in data set [2] is recorded as “Decreased motor neuron survival”.

B3: NGF: mouse NGF (2.5S) from Harlan; nerve growth factor, also the immunogen in aluminum phosphate adjuvant (protein)
chain: B2 chain
Take B3: in data set [1] (NGF 100 ng/ml, after 24 h in culture), the “Motor neurons with fewer neurites, immunoreactive for nitrotyrosine and cleaved caspase-3” value is listed as “Approximately 50%”. The “Survival of motor neurons cultured on unstimulated astrocytes” value in data set [1] (NGF 0.1-100 ng/ml, 72 h) is listed as “reduced in a dose-dependent manner”. In addition, in data set [1] (NGF removed before neuron plating), the “Motor neuron survival after pre-incubation of the astrocyte monolayer” value is listed as “no effect”. Also, the “Subset of motor neurons vulnerable to NGF in culture” value in data set [1] (co-cultures) is roughly 40%. The “Motor neuron apoptosis in the presence of nitric oxide” value in data set [2] (NGF 100 ng/ml, nitric oxide <50 nM from 10 μM NOC-18) was “induce motor neuron apoptosis”. In addition, in data set [2] (NGF 100 ng/ml, no nitric oxide donor), the “Survival of motor neurons maintained with GDNF” value is given as “no effect”. Moreover, the “Tolerability of NGF autoimmunization” value in data set [4] (all NGF autoimmunized mice) was “gained weight and did not display any signs of discomfort”. For the same molecule, the “Delay of survival versus mice injected with adjuvant only” value in data set [4] (female G93A mice, NGF in aluminum phosphate s.c., in average) was in the range of 10 to 15 days. In data set [4] (in most of the NGF autoimmunized mice), the Disease onset result was “delayed”.
